Reference: patent US20100119528A1, “Transport of Biologically Active Molecules into a Cell, Mitochondrion, or Nucleus” (priority 2008, published 2010)

System: mitochondria
Assay: Peptide-mediated delivery of cargo into cells/mitochondria (fluorescence microscopy)
Format: cell-based
Protocol: Cells, indicated above, were grown in 8-well culture slides. Peptide/protein complexes were formed in a volume of 100 μl in OptiMEM and incubated for 30 min at 37° C. Approximately 10,000 Cells grown to 75% confluence were overlaid with these preformed complexes. After 30 min of incubation at 37° C., 500 μl of fresh DMEM supplemented with 10% FBS was added to the cells and incubated for an additional 30 min. Cells were then washed with PBS followed by fixing with 4% paraformaldehyde in PBS. Cells were then mounted with flourescent-FragEL Mounting media (Calbiochem) containing DAPI nuclear stain before microscopic analysis. See, e.g., FIGS. 1, 2, 3, and 11.

Substance: AAVALLPAVLLALLAPMSVLTPLLLRGLTGSARRLPVPRAKIHSL (AAVALLPAVLLALLAPMSVLTPLLLRGLTGSARRLPVPRAKIHSL) [SEQ ID NO:19]
- delivery of Alexa-IgG into mitochondria (FIG. 1, 10 picomol Alexa-tagged IgG, SEQ ID NO:19 from 0 to 2000 pm, orange = red plus green stain): Alexa-IgG complex has entered the mitochondria
- delivery of FITC-tagged oligonucleotide (FIG. 2, green = mitochondria stained by FITC complex, blue = DAPI nucleus): demonstrates delivery of FITC-tagged oligonucleotide
- delivery of double-stranded circular plasmid (~5.5 kb) into the mitochondria (FIG. 3, DNA stain, small blue dots = mitochondria): delivery of a double-stranded circular plasmid (˜5.5 kb) into the mitochondria
